{"source": "patent US20150045610A1", "about": "“METHOD OF MODIFYING SPERMATOGENESIS, SPERMIOGENESIS AND/OR FERTILITY IN MAMMALS” (Monell Chemical Senses Center, priority 2012, published 2015)", "key": {"[1]": {"biological_target": "T1, human T1R3 receptor (Homo sapiens, UniProt Q7RTX0)", "T1 construct": "expressed in transfected cells", "T1 sequence (Q7RTX0 21-852)": "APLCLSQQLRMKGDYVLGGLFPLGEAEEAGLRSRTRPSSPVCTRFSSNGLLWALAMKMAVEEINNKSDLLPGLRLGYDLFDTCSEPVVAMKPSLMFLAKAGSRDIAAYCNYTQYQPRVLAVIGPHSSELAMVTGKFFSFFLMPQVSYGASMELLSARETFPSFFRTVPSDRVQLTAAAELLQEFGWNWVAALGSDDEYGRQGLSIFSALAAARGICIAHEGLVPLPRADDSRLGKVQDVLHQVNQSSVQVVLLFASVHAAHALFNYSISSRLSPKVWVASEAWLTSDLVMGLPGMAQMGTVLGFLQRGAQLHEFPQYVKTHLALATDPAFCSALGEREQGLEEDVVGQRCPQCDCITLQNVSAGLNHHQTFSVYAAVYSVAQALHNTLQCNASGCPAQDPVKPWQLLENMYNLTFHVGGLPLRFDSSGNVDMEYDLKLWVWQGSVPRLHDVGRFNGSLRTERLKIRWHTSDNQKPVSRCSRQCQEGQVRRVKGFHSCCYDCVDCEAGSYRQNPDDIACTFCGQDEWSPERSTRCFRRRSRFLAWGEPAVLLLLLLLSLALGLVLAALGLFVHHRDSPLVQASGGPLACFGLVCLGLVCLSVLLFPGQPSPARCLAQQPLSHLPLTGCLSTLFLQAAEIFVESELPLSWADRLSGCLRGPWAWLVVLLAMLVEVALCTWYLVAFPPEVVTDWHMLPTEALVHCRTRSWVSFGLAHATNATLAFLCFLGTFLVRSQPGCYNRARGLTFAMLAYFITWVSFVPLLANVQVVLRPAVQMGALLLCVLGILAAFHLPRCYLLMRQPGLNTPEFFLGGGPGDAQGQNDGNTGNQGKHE", "T1 sequence (Q8TE23 20-839 partner)": "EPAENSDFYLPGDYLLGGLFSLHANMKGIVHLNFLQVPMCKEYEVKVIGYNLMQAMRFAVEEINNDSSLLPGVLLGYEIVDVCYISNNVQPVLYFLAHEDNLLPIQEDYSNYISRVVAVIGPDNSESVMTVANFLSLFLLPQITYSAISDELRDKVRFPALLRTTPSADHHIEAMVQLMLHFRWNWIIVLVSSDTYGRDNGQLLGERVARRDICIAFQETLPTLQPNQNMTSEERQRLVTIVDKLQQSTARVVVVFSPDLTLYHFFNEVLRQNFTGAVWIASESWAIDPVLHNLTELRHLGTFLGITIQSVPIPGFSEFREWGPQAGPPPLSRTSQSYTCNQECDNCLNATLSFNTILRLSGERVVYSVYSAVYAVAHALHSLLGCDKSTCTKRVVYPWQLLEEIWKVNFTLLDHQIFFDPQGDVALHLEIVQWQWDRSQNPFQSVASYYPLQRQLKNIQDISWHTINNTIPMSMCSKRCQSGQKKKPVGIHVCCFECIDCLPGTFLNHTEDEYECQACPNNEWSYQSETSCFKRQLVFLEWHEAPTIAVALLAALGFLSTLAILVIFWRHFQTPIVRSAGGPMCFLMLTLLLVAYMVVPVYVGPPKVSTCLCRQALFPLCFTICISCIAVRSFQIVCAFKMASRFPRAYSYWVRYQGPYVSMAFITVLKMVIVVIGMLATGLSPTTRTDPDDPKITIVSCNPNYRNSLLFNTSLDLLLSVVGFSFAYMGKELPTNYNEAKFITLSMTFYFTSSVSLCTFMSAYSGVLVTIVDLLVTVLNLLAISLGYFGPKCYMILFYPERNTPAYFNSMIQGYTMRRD", "conditions": "cited from earlier work"}, "[2]": {"test_system": "sperm", "experiment": "sperm motility in vitro", "format": "cell-based, mouse", "conditions": "sperm of WT and mutant mice, clofibric acid in media (2 mM elsewhere in the source)", "text": "We observed spermatozoa after clofibrate treatment represent cells that were able to escape the inhibition of clofibric acid, most likely due to very fast clearance and fluctuating levels in rodents. This allows some tubular cells to complete the developmental cycle. Therefore, we measured sperm concentration as an indicator of efficiency of the pharmacological block and to be able to determine the concentration that results in effective sterility. We analyzed testicular morphology, sperm production, sperm motility and sperm function in in vitro fertilization after feeding these animals with the lipid lowering drug clofibrate. We tested an acute inhibition of sperm motility and function in vitro by incubating sperm from the engineered mice (mGus−/−, mT1R3−/−, hmT1R3+) in solutions containing clofibric acid or other T1R3 inhibitors. The concentration used was similar to the one used in human treatment with fibrates (˜0.03 g/kg weight, for 3 weeks). We tested sperm motility and function in vitro of the Gα-gustducin KO mice (missing only the Gα-gustducin gene (mGus−/−)) after blocking T1R3 receptors with the rodent specific inhibitor gurmarin (3 mg/ml).\nWe evaluated the residual sperm that was produced by the line 7c mice in more detail. […] From all the above results, the combined lack of T1R3 and α-gustducin exerted its effect primarily at the level of developing spermatocytes in testis."}}, "note": "Entries after “also recorded” stand apart in the source; their conditions may differ.", "data": [{"smiles": "CC(C)(Oc1ccc(Cl)cc1)C(=O)O", "note": "[clofibric acid]", "values": [{"measurement": "T1R3 inhibition compared with PPAR-α activation", "setting": "[1]", "result": "comparable to their activation of PPAR-α"}, {"measurement": "sperm motility", "setting": "[2]", "result": "no differences; also recorded: not affected"}]}]}
